According to patent publication US12427134B2, “Methods of reducing the risk of cardiovascular events in a subject with atrial fibrillation and/or atrial flutter” (priority 2019, dated 2025):

Tested on: hypertriglyceridemic patients with cardiovascular disease or at high risk for cardiovascular disease
Experiment: REDUCE-IT: treatment-emergent adverse events and serious adverse events (safety population)
Conditions: Safety population, N = 4089
Experimental: Specification of Variables and Procedures: Safety assessments included adverse events, clinical laboratory measurements (chemistry, hematology), 12-lead ECGs, vital signs (systolic and diastolic blood pressure, heart rate, respiratory rate, and body temperature), weight, waist circumference, and physical examinations as per Study Procedures in Table 1. […] All laboratory test results were evaluated by the investigator as to their clinical significance. Any observations at physical examinations or laboratory values considered by the investigator to be clinically significant were considered an adverse event.
An adverse event can therefore be any unfavorable and/or unintended sign (including an abnormal laboratory finding), symptom, or disease temporally associated with the use of an investigational medication product, whether or not related to the investigational medication product. All adverse events, including observed or volunteered problems, complaints, or symptoms, were recorded on the appropriate CRF. Each adverse event was evaluated for duration, intensity, and causal relationship with the study medication or other factors.
Adverse events, which included clinical laboratory test variables, were monitored from the time of informed consent until study participation was complete. Patients were instructed to report any adverse event that they experienced to the investigator. Beginning with Visit 2, investigators assessed for adverse events at each visit and recorded the event on the appropriate adverse event CRF.
Causality Assessment: The relationship of an adverse event to the administration of the study drug was assessed according to the following definitions: • No (unrelated, not related, no relation)—The time course between the administration of study drug and the occurrence or worsening of the adverse event rules out a causal relationship and another cause (concomitant drugs, therapies, complications, etc.) is suspected. • Yes (related, probably related, possibly related)—The time course between the administration of study drug and the occurrence or worsening of the adverse event is consistent with a causal relationship and no other cause (concomitant drugs, therapies, complications, etc.) can be identified.
Serious Adverse Events: A serious adverse event (SAE) is defined as an adverse event that meets any of the following criteria: • Results in death; • Is life-threatening—The term “life-threatening” in the definition of “serious” refers to an event in which the patient was at risk of death at the time of the event. […] Important medical events that may not result in death, be life threatening, or require hospitalization were considered an SAE when, based upon appropriate medical judgment, they may have jeopardized the patient and may have required medical or surgical intervention to prevent one of the outcomes listed above.
Analysis of Safety: All analyses of safety were conducted on the safety population, which was defined as all randomized patients. The safety assessment was based on the frequency of adverse events, physical exams, vital signs and safety laboratory tests. AEs with new onset during the study between the initiation of study drug and 30 days after the last dose of study drug for each patient was considered treatment-emergent (TEAEs). This included any AE with onset prior to initiation of study drug and increased severity after the treatment initiation.
This included overall incidence rates (regardless of severity and relationship to study drug), and incidence rates for moderate or severe adverse events. A summary of SAEs and adverse events leading to early discontinuation (for ≥30 days) were presented through data listings. Patients who restarted study drug were included in the summary of AEs leading to discontinuation.

CC/C=C\C/C=C\C/C=C\C/C=C\C/C=C\CCCC(=O)OCC [AMR101, eicosapentaenoic acid ethyl ester]
Serious adverse event - Anemia, n patients: 22
Serious adverse event - Angina pectoris, % patients: (1.2) %
Serious adverse event - Angina pectoris, n patients: 48
Serious adverse event - Angina unstable, % patients: (1.0) %
Serious adverse event - Angina unstable, n patients: 41
Serious adverse event - Atrial fibrillation, % patients: (0.5) %
Serious adverse event - Atrial fibrillation, n patients: 21
Serious adverse event - Blood and lymphatic system disorders (SOC), % patients: (1.0) %
Serious adverse event - Blood and lymphatic system disorders (SOC), n patients: 39
Serious adverse event - Cardiac disorders (SOC), % patients: (4.7) %
Serious adverse event - Cardiac disorders (SOC), n patients: 192
Serious adverse event - Cardiac failure congestive, % patients: (0.5) %
Serious adverse event - Cardiac failure congestive, n patients: 19
Serious adverse event - Cellulitis, % patients: (0.9) %
Serious adverse event - Cellulitis, n patients: 36
Serious adverse event - Chest pain, % patients: (1.6) %
Serious adverse event - Chest pain, n patients: 66
Serious adverse event - Chronic obstructive pulmonary disease, % patients: (0.8) %
Serious adverse event - Chronic obstructive pulmonary disease, n patients: 33
Serious adverse event - Gastrointestinal disorders (SOC), % patients: (4.7) %
Serious adverse event - Gastrointestinal disorders (SOC), n patients: 191
Serious adverse event - Gastrointestinal hemorrhage, % patients: (0.6) %
Serious adverse event - Gastrointestinal hemorrhage, n patients: 26
Serious adverse event - General disorders and administration site conditions (SOC), % patients: (3.4) %
Serious adverse event - General disorders and administration site conditions (SOC), n patients: 139
Serious adverse event - Musculoskeletal and connective tissue disorders (SOC), % patients: (4.6) %
Serious adverse event - Musculoskeletal and connective tissue disorders (SOC), n patients: 188
Serious adverse event - Neoplasms benign, malignant, and unspecified (incl cysts and polyps) (SOC), % patients: (5.4) %
Serious adverse event - Neoplasms benign, malignant, and unspecified (incl cysts and polyps) (SOC), n patients: 222
Serious adverse event - Nervous system disorders (SOC), % patients: (2.5) %
Serious adverse event - Nervous system disorders (SOC), n patients: 104
Serious adverse event - Non-cardiac chest pain, % patients: (1.2) %
Serious adverse event - Non-cardiac chest pain, n patients: 49
Serious adverse event - Osteoarthritis, % patients: (2.0) %
Serious adverse event - Osteoarthritis, n patients: 81
Serious adverse event - Pneumonia, % patients: (2.6) %
Serious adverse event - Pneumonia, n patients: 105
Serious adverse event - Prostate cancer, % patients: (0.6) %
Serious adverse event - Prostate cancer, n patients: 26
Serious adverse event - Pulmonary embolism, % patients: (0.3) %
Serious adverse event - Pulmonary embolism, n patients: 14
Serious adverse event - Renal and urinary disorders (SOC), % patients: (2.9) %
Serious adverse event - Renal and urinary disorders (SOC), n patients: 120
Serious adverse event - Respiratory, thoracic, and mediastinal disorders (SOC), % patients: (3.5) %
Serious adverse event - Respiratory, thoracic, and mediastinal disorders (SOC), n patients: 143
Serious adverse event - Syncope, % patients: (0.7) %
Serious adverse event - Syncope, n patients: 28
Severe TEAE, %: (19.7) %
Severe TEAE: Acute kidney injury, %: (0.7) %
Severe TEAE: Acute respiratory failure, %: (0.5) %
Severe TEAE: Angina pectoris, %: (0.2) %
Severe TEAE: Angina unstable, %: (0.3) %
Severe TEAE: Back pain, %: (0.5) %
Severe TEAE: Cardiac disorders, %: (2.4) %
Severe TEAE: Chest pain, %: (0.7) %
Severe TEAE: Chronic obstructive pulmonary disease, %: (0.4) %
Severe TEAE: General disorders and administration site conditions, %: (1.9) %
Severe TEAE: Musculoskeletal and connective tissue disorders, %: (2.9) %
Severe TEAE: Nervous system disorders, %: (1.9) %
Severe TEAE: Osteoarthritis, %: (0.8) %
Severe TEAE: Pneumonia, %: (1.5) %
Severe TEAE: Renal and urinary disorders, %: (1.9) %
Severe TEAE: Respiratory, thoracic, and mediastinal disorders, %: (2.5) %
Severe TEAE: Syncope, %: (0.3) %
Study Drug-Related Serious TEAE Leading to Withdrawal of Study Drug, %: (0.0) %
Study Drug-Related Serious TEAE, %: (0.2) %
Study Drug-Related TEAE Leading to Withdrawal of Study Drug, %: (3.4) %
Study Drug-Related TEAE, %: (12.6) %
Study drug-related TEAE leading to study drug withdrawal - Abdominal discomfort, % patients: (0.1) %
Study drug-related TEAE leading to study drug withdrawal - Abdominal discomfort, n patients: 6
Study drug-related TEAE leading to study drug withdrawal - Abdominal distension, % patients: (0.1) %
Study drug-related TEAE leading to study drug withdrawal - Abdominal distension, n patients: 3
Study drug-related TEAE leading to study drug withdrawal - Abdominal pain upper, % patients: (0.1) %
Study drug-related TEAE leading to study drug withdrawal - Abdominal pain upper, n patients: 4
Study drug-related TEAE leading to study drug withdrawal - Abdominal pain, % patients: (0.0) %
Study drug-related TEAE leading to study drug withdrawal - Abdominal pain, n patients: 1
Study drug-related TEAE leading to study drug withdrawal - Abnormal feces, % patients: (0.0) %
Study drug-related TEAE leading to study drug withdrawal - Abnormal feces, n patients: 0
Study drug-related TEAE leading to study drug withdrawal - Arthralgia, % patients: (0.2) %
Study drug-related TEAE leading to study drug withdrawal - Arthralgia, n patients: 7
Study drug-related TEAE leading to study drug withdrawal - Arthritis, % patients: (0.1) %
Study drug-related TEAE leading to study drug withdrawal - Arthritis, n patients: 3
Study drug-related TEAE leading to study drug withdrawal - Constipation, % patients: (0.1) %
Study drug-related TEAE leading to study drug withdrawal - Constipation, n patients: 4
Study drug-related TEAE leading to study drug withdrawal - Diarrhea, % patients: (1.0) %
Study drug-related TEAE leading to study drug withdrawal - Diarrhea, n patients: 41
Study drug-related TEAE leading to study drug withdrawal - Dyspepsia, % patients: (0.1) %
Study drug-related TEAE leading to study drug withdrawal - Dyspepsia, n patients: 4
Study drug-related TEAE leading to study drug withdrawal - Eructation, % patients: (0.1) %
Study drug-related TEAE leading to study drug withdrawal - Eructation, n patients: 3
Study drug-related TEAE leading to study drug withdrawal - Flatulence, % patients: (0.1) %
Study drug-related TEAE leading to study drug withdrawal - Flatulence, n patients: 6
Study drug-related TEAE leading to study drug withdrawal - Gastric disorder, % patients: (0.1) %
Study drug-related TEAE leading to study drug withdrawal - Gastric disorder, n patients: 4
